Measurements published in patent US6825199B2, “7-Substituted quinazolin-2,4-diones useful as antibacterial agents” (Warner-Lambert Company, priority 1997, dated 2004).
≈ marks a conversion by molar mass, not a printed value.

Key:
Type in all cases: cell-based
S. pyogenes C203 = experiment: Antibacterial assay, standard microtitration (MIC); details: Streptococcus pyogenes, C203; Gram positive; read-out: Minimum Inhibitory Concentrations S. pyogenes C203
Description: (§1) Antibacterial assay: The compounds of the present invention were tested against an assortment of Gram negative and Gram positive organisms using standard microtitration techniques (Cohen, et al., Antimicrob. Agents Chemother., 1985;28:766; Heifetz, et al., Antimicrob. Agents Chemother., 1974;6:124).

E. coli MC4100 = experiment: Antibacterial assay, standard microtitration (MIC); details: Escherichia coli, MC4100; Gram negative; read-out: Minimum Inhibitory Concentrations E. coli MC4100
Description: as §1

S. aureus 29213 = experiment: Antibacterial assay, standard microtitration (MIC); details: Staphylococcus aureus, 29213; Gram positive; read-out: Minimum Inhibitory Concentrations S. aureus 29213
Description: as §1

E. coli B90 = experiment: Antibacterial assay, standard microtitration (MIC); details: Escherichia coli, B90; Gram negative; read-out: Minimum Inhibitory Concentrations E. coli B90
Description: as §1

E. coli Tol C = experiment: Antibacterial assay, standard microtitration (MIC); details: Escherichia coli, read-out: Minimum Inhibitory Concentrations E. coli Tol C
Description: as §1

B. subtilis RB1 = experiment: Antibacterial assay, standard microtitration (MIC); details: Bacillus subtilis, Gram positive, read-out: Minimum Inhibitory Concentrations B. subtilis RB1
Description: as §1

[1] = system: Chinese hamster V79 cells; experiment: Mammalian cell cytotoxicity, colony formation; details: 3 hours drug treatment, colony formation after 5 days
Description: The cytotoxicity was determined in Chinese hamster V79 cells. The cells were grown overnight and treated with drug for 3 hours at 37° C., at which time the compound containing media was replaced with fresh media. The cells were then incubated for 5 days and examined for colony formation.

In the case of CCn1c(=O)n(O)c(=O)c2cc(F)c(N3CCOCC3)cc21 [Example 3, 1-Ethyl-6-fluoro-3-hydroxy-7-morpholin-4-yl-1H-quinazoline-2,4-dione], the MIC (S. pyogenes C203) is reported as > 64 µg/mL, the MIC (E. coli MC4100) is reported as > 64 µg/mL and the MIC (S. aureus 29213) is reported as > 64 µg/mL. It also gave an MIC (E. coli B90) of 4 µg/mL (≈ 12.9 µM), an MIC (E. coli Tol C) of 2 µg/mL (≈ 6.47 µM) and an MIC (B. subtilis RB1) of 8 µg/mL (≈ 25.9 µM). For the same compound, the “50% Cytotoxic Conc. in CHO Cells” value [1] was 176 µg/mL.
